Results taken from the supplement of paper PMC10307832.

Columns and labels:
Assay in all cases: relative viability (nuclei count vs DMSO), 5 days (fraction); higher = more cells survive
Dovitinib + Olaparib = compound: CN1CCN(c2ccc3nc(-c4c(N)c5c(F)cccc5[nH]c4=O)[nH]c3c2)CC1 [Dovitinib] + O=C(c1cc(Cc2n[nH]c(=O)c3ccccc23)ccc1F)N1CCN(C(=O)C2CC2)CC1 [Olaparib] (partner 8 µM)
Method in brief: (§1)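 A single step with final 0.05% Triton X-100, 1% formaldehyde and 1 ug/ml Hoechst fixed the cells and stained nuclei 5 days after treatment. Lung cancer cell lines in 1536-well plates had been treated by pin tool the day after seeding with one drug alone or a fixed anchor-drug dose plus five library-drug doses (not always all listed) in √10 steps, and nuclei were counted on 4× images. Relative viability is the ratio of nuclei in treated wells to nuclei in vehicle wells, taken as the median of duplicate plates.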

Dovitinib + AZD7762 = compound: CN1CCN(c2ccc3nc(-c4c(N)c5c(F)cccc5[nH]c4=O)[nH]c3c2)CC1 [Dovitinib] + NC(=O)Nc1cc(-c2cccc(F)c2)sc1C(=O)N[C@H]1CCCNC1 [AZD7762] (partner 0.2 µM)
Method in brief: as §1

Dovitinib + Lapatinib = compound: CN1CCN(c2ccc3nc(-c4c(N)c5c(F)cccc5[nH]c4=O)[nH]c3c2)CC1 [Dovitinib] + CS(=O)(=O)CCNCc1ccc(-c2ccc3ncnc(Nc4ccc(OCc5cccc(F)c5)c(Cl)c4)c3c2)o1 [Lapatinib] (partner 2 µM)
Method in brief: as §1

Dovitinib + Decitabine = compound: CN1CCN(c2ccc3nc(-c4c(N)c5c(F)cccc5[nH]c4=O)[nH]c3c2)CC1 [Dovitinib] + Nc1ncn([C@H]2C[C@H](O)[C@@H](CO)O2)c(=O)n1 [Decitabine] (partner 2 µM)
Method in brief: as §1

Cell Line | relative viability (Dovitinib + Olaparib; first compound 0.02 µM) | relative viability (Dovitinib + Olaparib; first compound 0.06325 µM) | relative viability (Dovitinib + Olaparib; first compound 0.2 µM) | relative viability (Dovitinib + Olaparib; first compound 0.6325 µM) | relative viability (Dovitinib + Olaparib; first compound 2 µM) | relative viability (Dovitinib + AZD7762; first compound 0.02 µM) | relative viability (Dovitinib + AZD7762; first compound 0.06325 µM) | relative viability (Dovitinib + AZD7762; first compound 0.2 µM) | relative viability (Dovitinib + AZD7762; first compound 0.6325 µM) | relative viability (Dovitinib + AZD7762; first compound 2 µM) | relative viability (Dovitinib + Lapatinib; first compound 0.02 µM) | relative viability (Dovitinib + Lapatinib; first compound 0.06325 µM) | relative viability (Dovitinib + Lapatinib; first compound 0.6325 µM) | relative viability (Dovitinib + Lapatinib; first compound 2 µM) | relative viability (Dovitinib + Decitabine; first compound 0.02 µM) | relative viability (Dovitinib + Decitabine; first compound 0.06325 µM) | relative viability (Dovitinib + Decitabine; first compound 0.2 µM) | relative viability (Dovitinib + Decitabine; first compound 0.6325 µM) | relative viability (Dovitinib + Decitabine; first compound 2 µM) | relative viability (Dovitinib + Lapatinib; first compound 0.2 µM)
201T | 0.803 | 0.842 | 0.809 | 0.865 | 0.815 | 0.615 | 0.814 | 0.598 | 0.606 | 0.562 | 0.95 | 0.993 | 1.01 | 0.968 | 0.817 | 0.857 | 0.839 | 0.844 | 0.871 | 
A-427 | 0.711 | 0.641 | 0.773 | 0.797 | 0.822 | 0.767 | 0.733 | 0.674 | 0.665 | 0.697 | 1.02 | 0.952 | 0.975 | 1.05 | 0.569 | 0.512 | 0.695 | 0.581 | 0.59 | 1.01
ABC-1 | 0.628 | 0.664 | 0.871 | 1.09 | 0.944 | 0.519 | 0.852 | 0.735 | 0.536 | 0.698 | 1.15 | 1.28 | 1.18 | 0.969 | 1.08 | 0.991 | 1.03 | 0.891 | 1.14 | 1.02
BEN | 1.11 | 1.09 | 1.08 | 1.1 | 1.05 | 0.692 | 0.697 | 0.637 | 0.877 | 0.597 | 0.533 | 0.822 | 0.771 | 0.808 | 0.754 | 0.599 | 0.683 | 0.783 | 0.71 | 0.835
CAL-12T | 0.69 | 0.434 | 0.733 | 0.61 | 0.713 | 0.648 | 0.664 | 0.558 | 0.659 | 0.505 | 0.709 | 0.501 | 0.618 | 0.986 |  |  |  |  |  | 0.713
COR-L23 | 0.296 | 0.383 | 0.379 | 0.353 | 0.342 |  |  |  |  |  | 0.918 | 0.983 | 1.01 | 0.882 | 0.439 | 0.43 | 0.438 | 0.501 | 0.484 | 1.04
COR-L 105 | 0.691 | 0.712 | 0.72 | 0.765 | 0.638 |  |  |  |  |  | 0.39 | 0.367 | 0.327 | 0.407 | 0.596 | 0.622 | 0.619 | 0.657 | 0.646 | 0.341
Calu-6 | 0.572 | 0.578 | 0.553 | 0.571 | 0.809 |  |  |  |  |  | 0.99 | 1.04 | 1.08 | 1.09 |  |  |  |  |  | 1.11
ChaGo-K-1 | 0.398 | 0.461 | 0.397 | 0.395 | 0.366 | 0.901 | 0.891 | 0.892 | 0.9 | 0.857 |  |  |  |  | 0.528 | 0.517 | 0.498 | 0.514 | 0.487 | 
EKVX | 0.897 | 0.723 | 0.862 | 0.831 | 0.904 | 0.569 | 0.775 | 0.694 | 0.755 | 0.684 | 0.252 | 0.189 | 0.21 | 0.21 | 0.388 | 0.399 | 0.348 | 0.339 | 0.286 | 0.257
EMC-BAC-2 | 0.569 | 0.513 | 0.5 | 0.486 | 0.504 | 1.21 | 1.06 | 1.1 | 1.08 | 1.16 | 0.886 | 0.839 | 0.807 | 0.923 | 1.1 | 0.958 | 1.06 | 1 | 1.01 | 0.898
EPLC-272H | 0.815 | 0.893 | 0.793 | 0.681 | 0.57 | 0.281 | 0.218 | 0.197 | 0.218 | 0.239 | 0.992 | 0.939 | 1.1 | 1.23 | 0.403 | 0.333 | 0.336 | 0.372 | 0.374 | 0.94
H3255 | 0.549 | 0.553 | 0.547 | 0.542 | 0.548 | 0.966 | 0.907 | 1 | 0.89 | 0.809 | 0.217 | 0.266 | 0.266 | 0.255 | 0.609 | 0.642 | 0.603 | 0.636 | 0.614 | 0.288
HARA | 0.973 | 0.921 | 1.07 | 0.775 | 0.885 | 0.334 | 0.257 | 0.381 | 0.211 | 0.315 | 0.914 | 0.716 | 0.805 | 0.602 | 0.733 | 0.618 | 0.508 | 0.57 | 0.465 | 0.564
HCC-15 | 0.687 | 0.703 | 0.71 | 0.696 | 0.726 | 1.05 | 1.17 | 1.1 | 1.19 | 1.32 | 0.853 | 0.857 | 0.874 | 0.845 | 0.684 | 0.746 | 0.686 | 0.676 | 0.619 | 0.91
HCC-44 | 0.976 | 0.977 | 0.949 | 0.996 | 0.92 | 0.979 | 0.97 | 1.03 | 0.955 | 0.975 | 1.01 | 1.02 | 0.938 | 1.01 | 0.926 | 0.936 | 0.97 | 0.962 | 0.92 | 1.03
HCC-78 | 0.887 | 0.665 | 1.05 | 0.777 | 0.888 | 0.71 | 0.481 | 0.674 | 0.699 | 0.489 | 0.539 |  | 1.03 | 0.663 | 0.741 | 0.659 | 0.686 | 0.655 | 0.631 | 0.901
